# Experimental data published in patent US9763980B2, “Combined chemical modification of sphingosine-1-phosphate (S1P) and CXCR4 signalling pathways for hematopoietic stem cell (HSC) mobilization and engraftment” (Children's Medical Center Corporation, priority 2011, dated 2017).
# Experiments:
# [1] = system: HSC; details: Massberg et al.; cited from earlier work
# [2] = system: brain inflammatory reaction following traumatic brain injury (TBI); details: rat model for brain inflammatory reaction following traumatic brain injury (TBI); cited from earlier work
# [3] = system: multiple sclerosis; details: cited from earlier work
# [4] = clinical trials; due to agonism of the S1P3 receptor; cited from earlier work
# [5] = system: rheumatoid arthritis; details: rat models for rheumatoid arthritis; cited from earlier work
# [6] = system: inflammatory bowel disease including colitis; details: mouse models for inflammatory bowel disease including colitis; cited from earlier work
# [7] = system: atopic dermatitis; details: mouse model for atopic dermatitis; cited from earlier work
# [8] = system: atherosclerosis; details: mouse models for atherosclerosis; cited from earlier work
# [9] = system: graft coronary artery disease and graft-versus-host disease (GVHD); details: mouse models for graft coronary artery disease and graft-versus-host disease (GVHD); cited from earlier work
# [10] = system: experimental autoimmune encephalomyelitis (EAE); details: EAE in rats, a model for human multiple sclerosis; cited from earlier work
# [11] = system: progressive mesangioproliferative glomerulonephritis; details: rat model for progressive mesangioproliferative glomerulonephritis; cited from earlier work
# [12] = system: CHT hematopoiesis (HSPC markers cmyb and runx1 in the CHT); assay: Zebrafish embryo chemical treatment and dose matrices, whole mount in situ hybridization of cmyb/runx1 in the CHT; type: in vivo
# Experimental: Transgenic zebrafish embryos were intercrossed and selected using epifluorescence (e.g. Runx1+23:EGFP, cmyb:EGFP^4, cd41:EGFP^2, kdrl:DsRed2^31). Live imaging was performed using a spinning disk confocal microscope with an incubated chamber. Zebrafish embryos were mounted and imaged as previously described. Live mouse fetal liver explants were prepared as previously described for aorta-gonad-mesonephros tissue^10. Image processing was done primarily with Fluorender^32 and ImageJ, which included the MTrackJ plugin^33 for manual cell tracking. For chemical screening and dose matrices, stage-matched AB embryos were dechorionated and arrayed 8-10/well in 96-well mesh-bottomed plates (Millipore). Embryos were treated from 48-72 hpf by placement directly in 96-well receiver plates containing small molecules diluted in E3 media+1% DMSO. Embryos were checked for circulation before fixation. Whole mount in situ hybridization was performed as previously described^34, with the addition of 0.2% glutaraldehyde to 4% formaldehyde at the post-fixation step. […] Lineage tracing was performed by injecting cd41:EGFP positive embryos with caged fluorescein conjugated to dextran (MW 10000). Embryos were uncaged in the DA at 28 hpf with a UV laser. Embryos were raised to 46 hpf in E3 media or E3+S1PR1 antagonist W146 (10 μM), then fixed for antibody staining to detect double positive cd41:EGFP and uncaged FITC HSPCs. Receptor fusion cDNAs (25 pg) were injected into one-cell embryos with Tol2 RNA (15 pg). Flow cytometry was performed using a LSR II and cells were sorted using a FACSAria (BD Biosciences). Flow cytometry data was analyzed using FACSDiva and FlowJo software.
# Having followed newly born aortic HSPCs to the intermediate tissue, the inventors assessed the signaling pathways involved in embryonic migration. The inventors designed a chemical genetic screen to introduce small molecules to the zebrafish embryo from the peak window of HSPC migration to the CHT (48-72 hpf).
# [13] = system: airway inflammation and induction of bronchial hyperresponsiveness; details: mouse model for airway inflammation and induction of bronchial hyperresponsiveness; cited from earlier work
# [14] = system: acute viral myocarditis; details: mouse model for acute viral myocarditis; cited from earlier work
# [15] = system: systemic lupus erythematosus (SLE); details: mouse model for systemic lupus erythematosus (SLE); cited from earlier work
# [16] = system: ischemia-reperfusion injury; details: mouse model for ischemia-reperfusion injury; cited from earlier work
# [17] = system: asthma; details: mouse model for asthma; cited from earlier work
# [18] = system: autoimmune myocarditis; details: rat model for autoimmune myocarditis; cited from earlier work
# [19] = system: peripheral lymphocyte; details: in vivo; cited from earlier work
# [20] = system: autoimmune uveitis; details: rat model for autoimmune uveitis; cited from earlier work
# [21] = Phase II clinical trials, relapsing-remitting multiple sclerosis
compound,measurement,setting,value
"CCCCCCCCc1ccc(CCC(N)(CO)CO)cc1 [FTY720, 2-amino-2-[2-(4-octylphenyl)ethyl]propane-1,3-diol]",HSC egress from tissues,[1],blocked
same,therapeutic efficacy,[2],therapeutic efficacy
same,clinical disease activity,[3]; [21],reduce
same,number of lesions detected by magnetic resonance imaging (MRI),[3]; [21],reduce
same,therapeutic efficacy,"[3]; multiple sclerosis, clinical trials",therapeutic efficacy
same,adverse event,[4],transient asymptomatic bradycardia
same,therapeutic efficacy,[5],therapeutic efficacy
same,therapeutic efficacy,[6],therapeutic efficacy
same,therapeutic efficacy,[7],therapeutic efficacy
same,therapeutic efficacy,[8],therapeutic efficacy
same,therapeutic efficacy,[9],therapeutic efficacy
same,therapeutic efficacy,[10],therapeutic efficacy
same,therapeutic efficacy,[11],therapeutic efficacy
same,CHT score (greatest engraftment in dose matrix),[12]; 15 μM AMD3100 and 5 μM FTY720,+2
same,HSC engraftment,[12]; 3:1 ratio of FTY720:AMD3100,promote and enhance HSC engraftment
same,migration of HSC from the bone marrow,[12]; 5:1 ratio of FTY720:AMD3100,promote migration of HSC
same,cmyb/runx1 expression in the CHT,"[12]; FTY720 5 μM alone, treatment from 48 hpf, 72 hpf embryos",little effect
same,CHT hematopoiesis,[12]; FTY720 (5μM) combined with AMD3100 (15μM),increase
same,CHT hematopoiesis,[12]; FTY720 with increased AMD3100 dose,greatly reduced
same,CHT hematopoiesis,[12]; combination of FTY720 and AMD3100 at specific combined doses (interaction matrix),increased
same,Experimental data: concentration of S1PR1 modulating agent in the combination effective at increasing HSC engraftment,[12]; combination with AMD3100,5 µM
same,Experimental data: concentration of S1PR1 modulating agent in the combination effective at increasing HSC mobilization,[12]; combination with AMD3100,5 μM FTY720
same,mobilization of HSC from the bone marrow in vivo,[12]; combination with AMD3100 in specific ratios,improves mobilization
same,CHT hematopoiesis,"[12]; dose matrices, agent combined with AMD3100",synergistic increases
same,CHT hematopoiesis,[12]; each agent alone at the doses of the effective FTY720/AMD3100 combination,no effect
same,therapeutic efficacy,[13],therapeutic efficacy
same,therapeutic efficacy,[14],therapeutic efficacy
same,therapeutic efficacy,[15],therapeutic efficacy
same,therapeutic efficacy,[16],therapeutic efficacy
same,therapeutic efficacy,[17],therapeutic efficacy
same,therapeutic efficacy,[18],therapeutic efficacy
same,lymphopenia (peripheral lymphocyte lowering),[19],rapidly and reversibly induce lymphopenia
same,therapeutic efficacy,[20],therapeutic efficacy
